The record followed here is ChEMBL document CHEMBL1130451, “Synthesis and cytotoxicity of amino analogues of the potent DNA alkylating agent seco-CBI-TMI” (Bioorg Med Chem Lett, 1997).

This experiment is described as follows: Concentration required for 50% inhibition of growth of AA8 cells following 4 hr drug exposure. Type of experiment: functional, cell-based. The settings on record: Cricetulus griseus, CHO-AA8, 4 h.

Regarding `COc1cc2cc(C(=O)N3CC(CCl)c4ccc([N+](=O)[O-])cc43)[nH]c2c(OC)c1OC` (stereo not drawn), the IC50 (as a rule, the concentration needed to halve the response being measured) is greater than 40000 nM.

`CNc1ccc2c(c1)N(C(=O)c1cc3cc(OC)c(OC)c(OC)c3[nH]1)CC2CCl` (stereo not drawn) displayed an IC50 of 220 nM.

For the molecule `CNc1cc2c(c3ccccc13)C(CCl)CN2C(=O)c1cc2cc(OC)c(OC)c(OC)c2[nH]1` (stereo not drawn), the midpoint of inhibition, the IC50, lay at 0.17 nM.

In turn, `COc1cc2cc(C(=O)N3CC(CCl)c4ccc(N(C)C)cc43)[nH]c2c(OC)c1OC` (stereo not drawn) returned an IC50 of 280 nM.

Molecule `COc1cc2cc(C(=O)N3CC(CCl)c4c3cc(N(C)C)c3ccccc43)[nH]c2c(OC)c1OC` (stereo not drawn) displayed an IC50 of 5.6 nM.

For `COc1cc2cc(C(=O)N3CC(CCl)c4ccc(N)cc43)[nH]c2c(OC)c1OC` (stereo not drawn), the IC50 came to 320 nM.

`COc1cc2cc(C(=O)N3CC(CCl)c4c3cc([N+](=O)[O-])c3ccccc43)[nH]c2c(OC)c1OC` (stereo not drawn) had an IC50 of 1600 nM.

`COc1cc2cc(C(=O)N3CC(CCl)c4c3cc(N)c3ccccc43)[nH]c2c(OC)c1OC` (stereo not drawn) returned an IC50 of 0.43 nM.
